Experimental findings from publication PMC12365235, “Molecular mechanisms of thiazide-like diuretics-mediated inhibition of the human Na-Cl cotransporter” (Nature Communications, 2025) are described below.

For orientation: IC50 means the midpoint of a concentration-inhibition curve. Low values mean higher potency, high ones lower potency.

The assay addresses T1, NCCcryo (Homo sapiens, UniProt P55017, E240A).
T1 sequence (P55017 132-1021 E240A): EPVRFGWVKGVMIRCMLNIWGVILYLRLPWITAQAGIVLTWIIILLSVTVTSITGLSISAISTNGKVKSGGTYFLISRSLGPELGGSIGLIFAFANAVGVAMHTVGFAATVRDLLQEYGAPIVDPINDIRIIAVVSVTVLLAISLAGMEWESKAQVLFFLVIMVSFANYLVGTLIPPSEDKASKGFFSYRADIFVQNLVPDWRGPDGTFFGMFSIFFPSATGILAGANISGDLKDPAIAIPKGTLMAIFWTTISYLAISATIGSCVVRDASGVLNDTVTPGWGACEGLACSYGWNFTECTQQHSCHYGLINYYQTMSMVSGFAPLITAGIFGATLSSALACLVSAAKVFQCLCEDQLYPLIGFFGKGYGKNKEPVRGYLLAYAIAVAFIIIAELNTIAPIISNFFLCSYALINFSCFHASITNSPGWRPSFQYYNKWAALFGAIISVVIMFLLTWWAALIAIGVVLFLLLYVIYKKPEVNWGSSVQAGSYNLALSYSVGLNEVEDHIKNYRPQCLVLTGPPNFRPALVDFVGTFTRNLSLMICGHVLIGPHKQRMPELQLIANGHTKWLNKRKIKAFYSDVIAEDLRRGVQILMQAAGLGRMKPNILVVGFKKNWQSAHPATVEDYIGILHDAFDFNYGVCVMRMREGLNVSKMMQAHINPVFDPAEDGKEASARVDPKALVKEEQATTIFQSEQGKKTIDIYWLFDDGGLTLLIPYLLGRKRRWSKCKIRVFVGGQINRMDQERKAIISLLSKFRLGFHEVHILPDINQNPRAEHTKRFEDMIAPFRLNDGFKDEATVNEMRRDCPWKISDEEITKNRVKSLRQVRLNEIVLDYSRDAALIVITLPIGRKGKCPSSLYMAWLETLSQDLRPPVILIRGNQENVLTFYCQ
T1 sequence (A0A0G2KTI4 1-202 E76K partner): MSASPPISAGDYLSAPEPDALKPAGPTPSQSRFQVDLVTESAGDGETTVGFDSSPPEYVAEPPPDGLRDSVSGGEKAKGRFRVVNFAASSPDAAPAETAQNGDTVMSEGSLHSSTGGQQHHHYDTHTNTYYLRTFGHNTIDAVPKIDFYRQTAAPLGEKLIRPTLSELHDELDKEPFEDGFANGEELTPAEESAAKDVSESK
Kind of assay: 125I- uptake assay, NCCcryo construct. It is filed as cell-based. The settings on record: thiazide-sensitive iodide uptake; hNCC with DrNKCC1 NTD and E240A. On the procedure: The NCCcryo construct consists of human NCC with its NTD (first 131 residues) replaced by that of zebrafish NKCC1 (first 202 residues), along with an E240A mutation and a Strep-tag II[69] at the N-terminus. The codon-optimized NCCcryo was cloned into a modified BacMam vector[70], which was then used for generating baculoviruses. HEK293S cells (3.0–3.5 × 10^6 cells per mL) were infected with the baculoviruses for NCCcryo, with sodium butyrate (10 mM) added 12–15 h afterwards, and the incubation temperature reduced to 30 °C. Two days after the addition of sodium butyrate, HEK293S cells were harvested.
HEK293S cell lines, cultured in 293 Freestyle medium (Life Technologies; plus 10% fetal bovine serum), stably expressing hNCC and its variants were generated following published protocols. Cells were transfected using Lipofectamine 3000 (Invitrogen) with a pSBbi-RP-based plasmid containing hNCC or its variants and the SB100X vector. Puromycin (2 μg/mL; Gemini Bio-Products) was used for selection of stable cell lines.
To prepare for the uptake experiment, cells were plated at 0.5 × 10^6 cells/well in 24-well plates one day in advance. […] Cells lysed using 1% sodium dodecyl sulfate (SDS) were analyzed by scintillation counting. […]

Compound `NS(=O)(=O)c1cc(C2(O)NC(=O)c3ccccc32)ccc1Cl` (centres unmarked) [chlorthalidone] had an IC50 of 20 nM.
For the compound `CC1Cc2ccccc2N1NC(=O)c1ccc(Cl)c(S(N)(=O)=O)c1` (centres unmarked) [indapamide], inhibition was half-maximal at 9.1 nM (IC50).
